From US20210186903A1, “TREATMENT FOR DEMYELINATING DISEASE” (CAMBRIDGE ENTERPRISE LIMITED, priority 2018, published 2021)
Entries after “also recorded” stand apart in the source; their conditions may differ.

Experiments:
aged OPCs [1] = assay: Differentiation assay of cultured aged OPCs; assay type: cell-based, rat; conditions: for differentiation of aged OPCs: aged OPCs (20-24 months), T3 40 ng/ml, 9cRA 50 nM, miconazole 1 μM, benztropine 1.5 μM
Experimental: Adult rats (2-27 months) were decapitated after lethal injection of phenobarbital into the tail vein. The brains were removed quickly and placed into ice-cold isolation medium (Tab. S3, alternatively Hibernate A (Brainbits). The telencephalon and cerebellum were dissected in isolation medium; meninges, and the olfactory bulb were mechanically removed and the brain tissue was mechanically minced into 1 mm3 pieces. The tissue pieces were spun down at 100 g for 1 min at RT and the tissue was washed in HBSS− (no Mg2+ and Ca2+, Gibco). Each half of the brain was mixed with 5 ml of dissociation solution (34 U/ml papain (Worthington), 20 μg/ml DNAse Type IV (Gibco) in isolation medium). The brain tissue was dissociated on a shaker (50 rpm) 494 for 40 min at 35° C. The digestion was stopped by addition of ice cold HBSS−. The tissue was centrifuged (200 g, 3 min, RT), the supernatant completely aspirated and the tissue resuspended in isolation medium supplemented with 2% B27 and 2 mM sodium-pyruvate (trituration solution). The tissue was allowed to sit in this solution for 5 min. To obtain a single cell suspension the tissue suspension was triturated 10 times using first a 5 ml serological pipette and subsequently three fire polished glass pipettes (opening diameter >0.5 mm). After each trituration step the tissue suspension was allowed to sediment (approximately 1-2 min) and the supernatant (approximately 2 ml), containing the cells, was transferred into a fresh tube. After each round of trituration 2 ml of fresh trituration solution were added. To remove accidentally transferred undigested tissue bits, the collected supernatant was filtered through 70 μm cell strainers into tubes that contained 90% isotonic Percoll (GE Healthcare, 17-0891-01, in 10×PBS pH7.2 (Lifetech). The final volume was topped up with phenol-red free DMEM/F12 with HEPES (Gibco) and mixed to yield a homogenous suspension with a final Percoll concentration of 22.5%. The single cell suspension was separated from remaining debris particles by gradient density centrifugation (800 g, 20 min, RT, without break). The myelin debris and all layers without cells were discarded and the brain cell containing phase (last 2 ml) and cell pellet were resuspended in HBSS+ and combined in a fresh 15 ml tubes and centrifuged (300 g, 5 min, RT). The cell pellet was resuspended in red blood cell lysis buffer (Sigma, R7757) and incubated for 1 min at RT to remove red blood cells. 10 ml of HBSS+ were added to this cell suspension and spun down (300 g, 5 min, RT). The cell pellets were resuspended in 0.5 ml modified Milteny washing buffer (MWB, 2 mM EDTA, 2 mM Na-Pyruvate, 0.5% BSA in PBS, pH 7.3) supplemented with 10 ng/ml human recombinant insulin (Gibco). […]

[2] = system: young adult OPCs (2-3 months old); conditions: T3 40 ng/ml, 9cRA 50 nM, miconazole 1 μM, benztropine 1.5 μM, O4, CNPase, MBP markers
Experimental: Adult rats (2-27 months) were decapitated after lethal injection of phenobarbital into the tail vein. The brains were removed quickly and placed into ice-cold isolation medium (Tab. S3, alternatively Hibernate A (Brainbits). The telencephalon and cerebellum were dissected in isolation medium; meninges, and the olfactory bulb were mechanically removed and the brain tissue was mechanically minced into 1 mm3 pieces. The tissue pieces were spun down at 100 g for 1 min at RT and the tissue was washed in HBSS− (no Mg2+ and Ca2+, Gibco). Each half of the brain was mixed with 5 ml of dissociation solution (34 U/ml papain (Worthington), 20 μg/ml DNAse Type IV (Gibco) in isolation medium). The brain tissue was dissociated on a shaker (50 rpm) 494 for 40 min at 35° C. The digestion was stopped by addition of ice cold HBSS−. The tissue was centrifuged (200 g, 3 min, RT), the supernatant completely aspirated and the tissue resuspended in isolation medium supplemented with 2% B27 and 2 mM sodium-pyruvate (trituration solution). The tissue was allowed to sit in this solution for 5 min. To obtain a single cell suspension the tissue suspension was triturated 10 times using first a 5 ml serological pipette and subsequently three fire polished glass pipettes (opening diameter >0.5 mm). […]

aged OPCs [3] = assay: qRT-PCR for OPC genes and Cdkn2a in cultured aged OPCs; assay type: cell-based, rat; conditions: aged OPCs (≥18 months)
Experimental: After isolation, OPCs were left to recover in OPC medium (60 μg/ml N-Acetyl cysteine (Sigma), 10 μg/ml human recombinant insulin (Gibco), 1 mM sodium pyruvate (Gibco), 50 μg/ml apo-transferrin (Sigma), 16.1 μg/ml putrescine (Sigma), 40 ng/ml sodium selenite (Sigma), 60 ng/ml progesterone (Sigma), 330 μg/ml bovine serum albumin (Sigma)) supplemented with b-FGF and PDGF (30 ng/ml each, Peprotech).
RNA was isolated from freshly purified OPCs or from cultured OPCs according to the Directzol RNA MicroPrep Kit (Zymo Research; R2061). All RNA samples were stored at −80° C. prior to further processing. cDNA was generated using the QuantiTect Reverse Transcription Kit's according to the instructions of the manufacturer (Qiagen; 205310). For RT-qPCR, primers (see Extended Data Tab. 5) were used at a concentration of […]. The efficiency of each primer was greater than […] as determined for each primer pair by serial dilutions of OPC cDNA. cDNA, primers, and the Syber Green Master Mix (Qiagen; 04141) were mixed as instructed by the manufacturer, and RT-qPCR and melting curve analysis were performed on Life Technologies' Quantstudio 6 Flex Real-Time PCR System. Fold changes in gene expression were calculated using the delta delta Ct method in Microsoft Excel. Statistical significance was determined using two-tailed unpaired t-tests assuming equal variances.

aged OPCs [4] = assay: Comet assay (DNA damage) of aged OPCs; assay type: cell-based, rat
Experimental: For comet assays of freshly isolated OPCs approximately 5000 OPCs were resuspended in 100 μl PBS and mixed with 300 μl 1% low melting point agarose (37° C.). Alternatively, when OPCs were cultured prior to the assay, the cells were detached using TrypLE 1× Select (Gibco) for 8 min at 37° C. The comet assay was then performed as described in reference 33. Briefly, OPCs were centrifuged at 300 g for 5 min. at room temperature and the cell pellet was resuspended with 100 μl PBS and then mixed with 300 μl molten low-melting point agarose pre-incubated at 37° C. The cell-agarose suspension was then applied gently onto polysine slides that were pre-treated with 1% agarose and allowed 590 to solidify at 4° C. The slides were submersed in alkaline cell lysis buffer (0.3M NaOH, 100 mM EDTA, 0.1% (w/v) N592 Lauroylsarcosine (Sigma, 61745), 1.2M NaCl in ddH2O) for 16 hours at 4° C. in the dark. […] Finally, electrophoresed and propidium iodide stained DNA was visualized using a Zeiss Axiovision Fluorescence microscope (Carl Zeiss), and 50-100 nuclei per animal were visually scored according to published protocols^34. Statistical significance was determined comparing respective damage categories between experimental groups by a two-tailed unpaired t-test. […]

aged female SD rats = assay: Remyelination after ethidium bromide lesion of caudal cerebellar peduncle in aged rats; assay type: in vivo, rat; conditions: for degree of remyelination versus control animals: aged rats fed ad libitum, metformin 300 mg/kg bodyweight in drinking water from 15 months, lesion at 18 months, assessed 50 days later, rank
Experimental: The animals were housed under standard laboratory conditions on a 12 h light/dark cycle with constant access to food and water. […] For metformin treatment 15 months old female SD rats that were fed ad libitum received metformin (Glucophage) in their drinking water (300 mg/kg bodyweight per day). Metformin treatment was interrupted for two days before and three days after surgery and then commenced to the end of the study (21 days after lesion induction). Fluid consumption was continuously monitored to adapt dosages. For studies involving demyelination, female Sprague Dawley rats (Harlan Laboratories) 18 months of age were used. The rats were anesthetized with buprenorphine (0.03 mg/kg, s.c.) 471 and 2.5% isoflurane. Demyelination was induced by stereotaxic injection of 4 μl of 0.01% ethidium bromide (EB) into the caudal cerebellar peduncles (CCPs), as previously described 28. EB was delivered at a rate of 1 μl/min. After EB delivery the injection needle remained in position for additional 4 min. To assess remyelination the rats were transcardially perfused with 4% glutaraldehyde and 0.4 mM CaCl2) in PBS. The cerebellum was cut in to transverse 1 mm thick sections. The tissue was fixed in 2% osmium-tetroxide at 4° C. overnight, dehydrated through a series of washes in ethanol and propylene-oxide and embedded in resin. From the resin blocks 1 μm thick sections were cut and stained with 1% toluidine blue.

SMILES | differentiation of aged OPCs (aged OPCs [1]) | differentiation of young OPCs [2] | proportion of MBP expressing oligodendrocytes with highly arborized morphology (aged OPCs [1]; aged OPCs exposed to metformin, in the presence of pro-differentiation factors) | differentiation of aged OPCs (differentiation potential), agent added before differentiation (aged OPCs [1]; aged OPCs, agent added prior to pro-differentiation compounds / onset of differentiation, Olig2+MBP+ cells) | expression of Cdkn2a (senescence marker) (aged OPCs [3]; 100 μM metformin during first 5 days of culture) | expression of Pdgfra and Ascl1 (OPC self-renewal genes) (aged OPCs [3]; 100 μM metformin during first 5 days of culture with growth factors) | DNA damage, comet assay (aged OPCs [4]; aged OPCs (≥18 months), 100 μM metformin during first 5 days of culture) | hallmarks of aging of aged OPCs (aged OPCs [4]; aged OPCs, DNA damage among the hallmarks) | degree of remyelination versus control animals (aged female SD rats) | degree of remyelination versus control animals (aged female SD rats; listed as Metformin) | degree of remyelination versus ADF animals (aged female SD rats; aged rats, metformin 300 mg/kg in drinking water for three months prior to lesion, compared with alternate day fasting)
CC1=C(/C=C/C(C)=C\C=C\C(C)=C\C(=O)O)C(C)(C)CCC1 [9-cis-retinoic acid] | but not aged OPCs | enhanced differentiation in young |  |  |  |  |  |  |  |  | 
CN1[C@@H]2CC[C@H]1C[C@@H](OC(c1ccccc1)c1ccccc1)C2 [benztropine] | but not aged OPCs | enhanced differentiation in young |  |  |  |  |  |  |  |  | 
CN(C)C(=N)NC(=N)N [metformin, N,N-dimethylbiguanide] |  |  | significant increase | restores the ability of aged OPCs to differentiate; also recorded: enhanced differentiation of aged OPCs | expressed significantly less Cdkn2a | increased their expression of Pdgfra and Ascl1 | less DNA damage | ameliorates hallmarks of ageing | enhances remyelination in aged rats | significantly higher compared to control animals | comparable to animals undergoing ADF
